Data as given in PubChem BioAssay (NCI).
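Compound exposure: 48 hours, 5 concentrations, 96-well plates. Abbreviation: GI50, concentration required for 50% inhibition of growth. At the TGI there is no net growth.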

Tests used:
Assay in all cases: NCI anticancer screen, dose series, 48 h
[1] = system: UO-31 renal
[2] = system: OVCAR-5 ovarian
[3] = system: SK-MEL-2 melanoma
[4] = system: HL-60(TB) leukemia
[5] = system: K-562 leukemia
[6] = system: MCF7 breast
[7] = system: CCRF-CEM leukemia
[8] = system: A549 NSCLC
[9] = system: MOLT-4 leukemia
[10] = system: HCT-116 colon
[11] = system: SN12C renal
[12] = system: SR leukemia
[13] = system: COLO 205 colon
[14] = system: SF-539 CNS
[15] = system: DU-145 prostate
[16] = system: SNB-19 CNS
[17] = system: UACC-62 melanoma
[18] = system: HCT-15 colon
[19] = system: NCI/ADR-RES ovarian
[20] = system: RPMI-8226 leukemia
[21] = system: MALME-3M melanoma
[22] = system: HT29 colon
[23] = system: NCI-H23 lung
[24] = system: OVCAR-3 ovarian
[25] = system: SW-620 colon
[26] = system: SF-268 CNS
[27] = system: SK-OV-3 ovarian
[28] = system: IGROV1 ovarian
[29] = system: OVCAR-8 ovarian
[30] = system: HCC-2998 colon
[31] = system: HOP-92 NSCLC
[32] = system: MDA-MB-435
[33] = system: MDA-MB-231 breast
[34] = system: HOP-62 NSCLC
[35] = system: HS 578T breast
[36] = system: EKVX NSCLC
[37] = system: OVCAR-4 ovarian
[38] = system: SF-295 CNS
[39] = system: U251 CNS
[40] = system: TK-10 renal
[41] = system: UACC-257 melanoma
[42] = system: M14 melanoma
[43] = system: SK-MEL-28 melanoma
[44] = system: KM12 colon
[45] = system: NCI-H460 lung
[46] = system: NCI-H226 lung
[47] = system: PC-3 prostate
[48] = system: NCI-H522 lung
[49] = system: SNB-75 CNS
[50] = system: ACHN renal
[51] = system: SK-MEL-5 melanoma
[52] = system: T-47D breast
[53] = system: RXF 393 renal
[54] = system: BT-549 breast
[55] = system: CAKI-1 renal
[56] = system: 786-0 renal
[57] = system: LOX IMVI melanoma

CCOC(=O)[C@@H]1CSC(CC)=C(C(=O)O)N1
GI50 [1]: > 100 µM
TGI [1]: > 100 µM
GI50 [2]: > 100 µM
TGI [2]: > 100 µM
GI50 [3]: > 100 µM
TGI [3]: > 100 µM
GI50 [4]: > 100 µM
TGI [4]: > 100 µM
GI50 [5]: > 100 µM
TGI [5]: > 100 µM
GI50 [6]: > 100 µM
TGI [6]: > 100 µM
GI50 [7]: > 100 µM
TGI [7]: > 100 µM
GI50 [8]: > 100 µM
TGI [8]: > 100 µM
GI50 [9]: > 100 µM
TGI [9]: > 100 µM
GI50 [10]: > 100 µM
TGI [10]: > 100 µM
GI50 [11]: > 100 µM
TGI [11]: > 100 µM
GI50 [12]: > 100 µM
TGI [12]: > 100 µM
GI50 [13]: > 100 µM
TGI [13]: > 100 µM
GI50 [14]: > 100 µM
TGI [14]: > 100 µM
GI50 [15]: > 100 µM
TGI [15]: > 100 µM
GI50 [16]: > 100 µM
TGI [16]: > 100 µM
GI50 [17]: > 100 µM
TGI [17]: > 100 µM
GI50 [18]: > 100 µM
TGI [18]: > 100 µM
GI50 [19]: > 100 µM
TGI [19]: > 100 µM
GI50 [20]: > 100 µM
TGI [20]: > 100 µM
GI50 [21]: > 100 µM
TGI [21]: > 100 µM
GI50 [22]: > 100 µM
TGI [22]: > 100 µM
GI50 [23]: > 100 µM
TGI [23]: > 100 µM
GI50 [24]: > 100 µM
TGI [24]: > 100 µM
GI50 [25]: > 100 µM
TGI [25]: > 100 µM
GI50 [26]: > 100 µM
TGI [26]: > 100 µM
GI50 [27]: > 100 µM
TGI [27]: > 100 µM
GI50 [28]: > 100 µM
TGI [28]: > 100 µM
GI50 [29]: > 100 µM
TGI [29]: > 100 µM
GI50 [30]: > 100 µM
TGI [30]: > 100 µM
GI50 [31]: > 100 µM
TGI [31]: > 100 µM
GI50 [32]: > 100 µM
TGI [32]: > 100 µM
GI50 [33]: > 100 µM
TGI [33]: > 100 µM
GI50 [34]: > 100 µM
TGI [34]: > 100 µM
GI50 [35]: > 100 µM
TGI [35]: > 100 µM
GI50 [36]: > 100 µM
TGI [36]: > 100 µM
GI50 [37]: > 100 µM
TGI [37]: > 100 µM
GI50 [38]: > 100 µM
TGI [38]: > 100 µM
GI50 [39]: > 100 µM
TGI [39]: > 100 µM
GI50 [40]: > 100 µM
TGI [40]: > 100 µM
GI50 [41]: > 100 µM
TGI [41]: > 100 µM
GI50 [42]: > 100 µM
TGI [42]: > 100 µM
GI50 [43]: > 100 µM
TGI [43]: > 100 µM
GI50 [44]: > 100 µM
TGI [44]: > 100 µM
GI50 [45]: > 100 µM
TGI [45]: > 100 µM
GI50 [46]: > 100 µM
TGI [46]: > 100 µM
GI50 [47]: > 100 µM
TGI [47]: > 100 µM
GI50 [48]: > 100 µM
TGI [48]: > 100 µM
GI50 [49]: > 100 µM
TGI [49]: > 100 µM
GI50 [50]: > 100 µM
TGI [50]: > 100 µM
GI50 [51]: > 100 µM
TGI [51]: > 100 µM
GI50 [52]: > 100 µM
TGI [52]: > 100 µM
GI50 [53]: > 100 µM
TGI [53]: > 100 µM
GI50 [54]: > 100 µM
TGI [54]: > 100 µM
GI50 [55]: > 100 µM
TGI [55]: > 100 µM
GI50 [56]: > 100 µM
TGI [56]: > 100 µM
GI50 [57]: > 100 µM
TGI [57]: > 100 µM

CS(=O)(=O)Nc1cc(-c2ccc3ncnc(Nc4cccc(Cl)c4)c3c2)cnc1Cl
GI50 [1]: 0.105 µM
TGI [1]: 1.86 µM
GI50 [2]: 0.223 µM
TGI [2]: 13.5 µM
GI50 [3]: 0.345 µM
TGI [3]: 2.05 µM
GI50 [4]: 0.174 µM
TGI [4]: 17.7 µM
GI50 [5]: 1.36 µM
TGI [5]: 59.8 µM
GI50 [6]: 0.215 µM
TGI [6]: 13.6 µM
GI50 [7]: 0.463 µM
TGI [7]: 20.7 µM
GI50 [8]: 1.11 µM
TGI [8]: 4.17 µM
GI50 [9]: 0.235 µM
TGI [9]: 1.17 µM
GI50 [10]: 0.664 µM
TGI [10]: 5.87 µM
GI50 [11]: 0.447 µM
TGI [11]: 51.2 µM
GI50 [12]: 0.371 µM
TGI [12]: 4.95 µM
GI50 [13]: 0.371 µM
TGI [13]: 1.8 µM
GI50 [14]: 0.439 µM
TGI [14]: 3.73 µM
GI50 [15]: 0.455 µM
TGI [15]: 10.3 µM
GI50 [16]: 0.717 µM
TGI [16]: 5.05 µM
GI50 [17]: 0.202 µM
TGI [17]: 1.26 µM
GI50 [18]: 0.296 µM
TGI [18]: 2.72 µM
GI50 [19]: 1.19 µM
TGI [19]: 12 µM
GI50 [20]: 0.378 µM
TGI [20]: 2.36 µM
GI50 [21]: 0.0985 µM
TGI [21]: 0.82 µM
GI50 [22]: 0.319 µM
TGI [22]: 5.84 µM
GI50 [23]: 0.328 µM
TGI [23]: 10.6 µM
GI50 [24]: 0.343 µM
TGI [24]: 2.28 µM
GI50 [25]: 0.48 µM
TGI [25]: 4.87 µM
GI50 [26]: 0.337 µM
TGI [26]: 4.71 µM
GI50 [27]: 0.262 µM
TGI [27]: 1.58 µM
GI50 [28]: 0.0784 µM
TGI [28]: 0.476 µM
GI50 [29]: 1.24 µM
TGI [29]: 30.3 µM
GI50 [30]: 0.246 µM
TGI [30]: 1.79 µM
GI50 [31]: 0.122 µM
TGI [31]: 0.96 µM
GI50 [32]: 0.418 µM
TGI [32]: 2.67 µM
GI50 [33]: 1.05 µM
TGI [33]: 5.56 µM
GI50 [34]: 0.22 µM
TGI [34]: 5.29 µM
GI50 [35]: 0.088 µM
TGI [35]: 0.782 µM
GI50 [36]: 0.416 µM
TGI [36]: 3.59 µM
GI50 [37]: 0.828 µM
TGI [37]: 9.22 µM
GI50 [38]: 0.335 µM
TGI [38]: 2.2 µM
GI50 [39]: 0.503 µM
TGI [39]: 2.68 µM
GI50 [42]: 0.542 µM
TGI [42]: 10.6 µM
GI50 [43]: 0.3 µM
TGI [43]: 4.75 µM
GI50 [44]: 1.03 µM
TGI [44]: 5.11 µM
GI50 [45]: 0.642 µM
TGI [45]: 11.1 µM
GI50 [46]: 1.1 µM
TGI [46]: 7.62 µM
GI50 [47]: 0.288 µM
TGI [47]: 11.5 µM
GI50 [48]: 0.391 µM
TGI [48]: 6.86 µM
GI50 [50]: 0.474 µM
TGI [50]: 46.6 µM
GI50 [51]: 0.35 µM
TGI [51]: 1.47 µM
GI50 [52]: 0.0237 µM
TGI [52]: 0.635 µM
GI50 [54]: 0.272 µM
TGI [54]: 3.28 µM
GI50 [55]: 0.299 µM
TGI [55]: 7.71 µM
GI50 [56]: 0.457 µM
TGI [56]: 7.01 µM
GI50 [57]: 0.33 µM
TGI [57]: 2.19 µM
